Assays:
[1] = target: BRISC BRCC36 Thr128Pro (Homo sapiens, UniProt P46736+Q15018+Q9NXR7, T128P); assay: Mass photometry, BRISC mutant BRCC36 Thr128Pro; format: binding; conditions: BRCC36 Thr128Pro (inactive mutant)
Procedure: (§1) Microscope coverslips were prepared as previously described^33. All mass photometry experiments were performed using a One^MP mass photometer (Refeyn Ltd, Oxford, UK). For preliminary BRISC-inhibitor measurements, 1 μM BRISC(FL) was mixed with either DMSO or inhibitor at 330 μM and incubated for 15 minutes on ice. Prior to MP measurement, the BRISC-inhibitor mix was diluted in gel filtration buffer (25 mM HEPES, 150 mM NaCl, 1 mM TCEP) for a final concentration of BRISC at 10 nM (0.05% DMSO). 12 μL of this dilution was used for the final MP measurement, following autofocus stabilisation. […] Movies were recorded for 60 seconds using AcquireMP (Refeyn, UK), and were processed using DiscoverMP (Refeyn, UK). […] The relative amount of each species is calculated as the area of each Gaussian, where a refers to the standard deviation of the fitted Gaussian. […] Curves were fitted and EC50 values were calculated using the GraphPad Prism (v8.0) built-in dose-response equation for concentration of agonist vs. response (variable slope).
(§2) The cryo-EM structures of BRISC bound to molecular glues allowed picking of selective mutations to probe the BRISC-compound interaction site and to assess the contribution of each interacting residue for inhibition and gluing activity. […] For the remaining active 13 mutants (FIGS. 11C, 11D) inhibitor IC50s were calculated against BRISC DUB activity. […]

[2] = target: BRISC BRCC36 Arg167Ala (Homo sapiens, UniProt P46736+Q15018+Q9NXR7, R167A); assay: IQF DUB assay, BRISC mutant BRCC36 Arg167Ala; format: biochemical; conditions: FIG. 4B
Procedure: (§3) The four-subunit human BRISC (full-length (FL) and MERIT40ΔN, Abraxas2ΔC) complex was cloned using the MultiBac system and co-expressed in Spodoptera frugiperda (Sf9) insect cells^32. BRISC mutants were cloned into pFastBac vectors in the Bac-to-Bac system (ThermoFisher), baculoviruses generated in Sf9 cells and used for co-infection of Trichoplusia ni (Tni) cells. All BRISC complexes were purified as previously described^12,13.
(§4) BRISC complexes were tested for activity in DUB reaction buffer containing 50 mM HEPES-NaOH pH 7.0, 100 mM NaCl, 0.1 mg/mL BSA, 1 mM DTT, and 0.003% Brij-35. […] Inhibitors were assayed at concentrations up to 200 μM. […] DUB activity was measured using internally quenched fluorescent (IQF) K63-linked diUb (Lifesensors, catalogue number: DU6303) at 50 or 100 nM. Cleaved diUb was monitored by measuring fluorescence intensity (Ex. 540 nm, Em. 580 nm; dichroic mirror 560 nm). Fluorescence intensity was measured every minute for 30 minutes at 30° C. Fluorescence intensity units for the first 10 minutes were plotted against time to generate a linear reaction progress curve, where the initial velocity (v0) corresponds to the gradient of the curve. IC50 values were calculated using the GraphPad Prism (v8.0) built-in dose-response equation for inhibitor concentration vs. response (variable slope). […]

[3] = target: BRISC Abraxas2 Ile133Trp (Homo sapiens, UniProt P46736+Q15018+Q9NXR7, I133W); assay: IQF DUB assay, BRISC mutant Abraxas2 Ile133Trp; format: biochemical; conditions: FIG. 4B
Procedure: as §3, §4

[4] = target: BRISC BRCC36 Leu169Ala (Homo sapiens, UniProt P46736+Q15018+Q9NXR7, L169A); assay: IQF DUB assay, BRISC mutant BRCC36 Leu169Ala; format: biochemical; conditions: FIG. 4B
Procedure: as §3, §4

[5] = target: BRISC Abraxas2 Thr140Ala (Homo sapiens, UniProt P46736+Q15018+Q9NXR7, T140A); assay: IQF DUB assay, BRISC mutant Abraxas2 Thr140Ala; format: biochemical; conditions: FIG. 4B
Procedure: as §3, §4

[6] = target: T1, BRISC(FL) (Homo sapiens, UniProt P46736+Q15018+Q9NXR7); assay: Native mass spectrometry of BRISC with inhibitor; format: binding; conditions: 10 μM BRISC(FL), 1 mM inhibitor
T1 construct: The four-subunit human BRISC (full-length (FL) and MERIT40ΔN, Abraxas2ΔC) complex was cloned; made in house; host or cells: Spodoptera frugiperda (Sf9) insect cells
Procedure: Samples were buffer exchanged into 500 mM ammonium acetate using Zeba Spin 7K MWCO desalting columns (ThermoFisher). Gold and palladium coated nanospray tips were prepared in-house and mounted on the nano-electrospray ionisation source. Mass spectra were acquired on a Q Exactive Ultra-High Mass Range Hybrid Quadrupole-Orbitrap mass spectrometer (Thermo Fisher), optimised for mass resolution at high m/z ratios. Data were visualised and processed using Mass Lynx (v4.1) and UniDec (v2.7.1).

[7] = target: BRISC BRCC36 Ile158Lys (Homo sapiens, UniProt P46736+Q15018+Q9NXR7, I158K); assay: Mass photometry, BRISC mutant BRCC36 Ile158Lys; format: binding; conditions: BRCC36 Ile158Lys (inactive mutant)
Procedure: as §1, §2

[8] = tested on: BRISC BRCC45 mutants; assay: IQF DUB assay, BRISC BRCC45 mutants; format: biochemical, human; conditions: four BRCC45 residues mutated, FIG. 4B
Procedure: as §3, §4

[9] = target: BRISC (Homo sapiens, UniProt P46736+Q15018+Q9NXR7); assay: BRISC-mediated tetraubiquitin chain cleavage by Western blotting; format: biochemical; parameters: made in house; host or cells: Spodoptera frugiperda (Sf9) insect cells; conditions: K63-linked Ub4, Western blot, FIG. 6B
Excerpt: The potency of these analogues was characterised in the IQF assay with a fluorescent di-ubiquitin substrate. […] We confirmed the ability of these inhibitors to block BRISC-mediated tetraubiquitin chain cleavage by Western blotting (FIG. 6B).

## O=C(NC1C2CNCC21)c1nn(C(=O)c2c(Cl)cccc2Cl)cc1NC(=O)c1c(Cl)cccc1Cl (stereo not drawn) [FX-171-C]
[1]
  inhibitor-induced dimerisation: still formed a dimer
[2]
  inhibitor sensitivity of mutant: remained inhibitor sensitive
[3]
  inhibitor sensitivity of mutant: no effect on inhibitor sensitivity
[4]
  inhibitor sensitivity of mutant: severely affected
[5]
  IC50 higher than BRISC WT: 10 fold
[6]
  BRISC species by native mass spectrometry: BRISC dimers with a MW consistent with a 4:4:4:4 stoichiometry were observed
[7]
  inhibitor-induced dimerisation: reduction in the inhibitor-induced dimerisation effect
[8]
  ability to recognise the inhibitor: reduced
[9]
  inhibition of tetraubiquitin chain cleavage: Dose-dependent inhibition

— patent US20230317203A1, “SCREENING METHOD” (University of Leeds, priority 2022, published 2023)
